From patent US7851474B2, “Dipiperazinyl ketones and related analogues” (Neurogen Corporation, priority 2005, dated 2010)

Biological target: T1, chimeric human H3 receptor (Homo sapiens, UniProt Q9Y5N1, E19D)
T1 construct: made in house; host or cells: Sf9 insect cells (baculovirus infection); P2 membrane preparation
Assay: Chimeric human H3 receptor screening GTP binding assay (inhibition of histamine-stimulated GTP-gamma35S binding, Example 8)
Format: biochemical
Conditions: 1 h; "+" in Ki of Table II; assay of Example 8; read-out: percent inhibition of agonist-induced GTP-gammaS binding to H3
Experimental: This Example illustrates a representative screening assay for evaluating inhibition of histamine-stimulated GTP-gamma^35S binding. Such GTP binding activity can be used to identify H3 antagonists and inverse agonists. A compound analyzed in this assay is referred to herein as a “test compound,” and the initial identification of antagonists and inverse agonists is performed using a test compound concentration of 4 μM.
Four independent baculoviral stocks (one directing the expression of the chimeric human H3 receptor and three directing the expression of each of the three subunits of a heterotrimeric G-protein) are used to infect a culture of Sf9 cells as described above. P2 membranes are prepared as described above, and are resuspended by Dounce homogenization (tight pestle) in GTP binding assay buffer (50 mM Tris pH 7.4, 120 mM NaCl, 5 mM MgCl2, 2 mM EGTA, 1 mg/ml BSA, 0.2 mg/ml bacitracin, 0.02 mg/ml aprotinin, 0.01 mg/ml saponin, 10 μM GDP) and added to assay tubes at a concentration of 35 μg protein/reaction tube. Non-radiolabeled test compounds are added to separate reactions at a concentration of 4 μM along with 1 μM histamine (agonist). Reactions are initiated by the addition of 125 pM GTP-gamma^35S with a final assay volume of 0.20 ml.
After a 60-min incubation at room temperature, reactions are terminated by vacuum filtration over GF/C filters (pre-soaked in 50 mM Tris pH 7.4, 120 mM NaCl plus 0.1% BSA) followed by washing with ice-cold buffer (50 mM Tris pH 7.4, 120 mM NaCl). The amount of receptor-bound (and thereby membrane-bound) GTP-gamma^35S is determined by measuring the bound radioactivity, preferably by liquid scintillation spectrometry of the washed filters. Non-specific binding is determined using 10 uM GTP-gammaS and typically represents less than 5 percent of total binding. After subtraction of non-specific binding, data is expressed as percent inhibition of 1 μM histamine signal.
Neutral antagonists are those test compounds that reduce the histamine-stimulated GTP binding activity towards, but not below, baseline levels. In contrast, in the absence of added histamine, inverse agonists reduce the GTP binding activity of the receptor-containing membranes below baseline. Any test compound that elevates GTP binding activity above baseline in the absence of added histamine in this assay is defined as having agonist activity.

T1 sequence (Q9Y5N1 with tags, fused parts or gaps E19D): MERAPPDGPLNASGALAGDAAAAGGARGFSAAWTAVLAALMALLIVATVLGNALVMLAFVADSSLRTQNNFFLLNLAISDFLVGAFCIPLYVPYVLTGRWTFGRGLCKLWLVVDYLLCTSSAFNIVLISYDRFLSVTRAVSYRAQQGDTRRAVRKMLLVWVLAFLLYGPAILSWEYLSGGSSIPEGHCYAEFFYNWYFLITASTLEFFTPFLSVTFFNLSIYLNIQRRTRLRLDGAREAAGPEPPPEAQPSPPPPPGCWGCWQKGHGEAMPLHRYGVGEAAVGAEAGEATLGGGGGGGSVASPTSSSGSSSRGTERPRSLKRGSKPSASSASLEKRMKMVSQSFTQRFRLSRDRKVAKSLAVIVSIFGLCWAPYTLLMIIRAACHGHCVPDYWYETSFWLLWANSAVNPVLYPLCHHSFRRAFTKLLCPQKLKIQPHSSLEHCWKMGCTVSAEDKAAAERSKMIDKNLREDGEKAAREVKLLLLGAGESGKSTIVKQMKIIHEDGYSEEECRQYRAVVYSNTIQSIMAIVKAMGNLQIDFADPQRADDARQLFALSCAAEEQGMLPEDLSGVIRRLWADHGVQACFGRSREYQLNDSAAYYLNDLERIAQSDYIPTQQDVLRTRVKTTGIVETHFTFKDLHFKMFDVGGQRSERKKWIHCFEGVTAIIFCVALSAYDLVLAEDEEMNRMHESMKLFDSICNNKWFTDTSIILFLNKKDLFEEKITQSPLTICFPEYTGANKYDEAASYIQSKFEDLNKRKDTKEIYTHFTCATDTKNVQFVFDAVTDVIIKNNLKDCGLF

inhibition at 4 µM | SMILES
> 90% | O=C(CN1CCN(C(=O)c2cc(C(F)(F)F)ccc2Cl)CC1)N1CCN(C2CCC2)CC1 [Compound 452, 1-[2-chloro-5-(trifluoromethyl)benzoyl]-4-[2-(4-cyclobutylpiperazin-1-yl)-2-oxoethyl]piperazine]
> 90% | O=C(CN1CCN(C(=O)c2cc(C(F)(F)F)cc(C(F)(F)F)c2)CC1)N1CCN(C2CCC2)CC1 [Compound 456, 1-[3,5-bis(trifluoromethyl)benzoyl]-4-[2-(4-cyclobutylpiperazin-1-yl)-2-oxoethyl]piperazine]
> 90% | O=C(CN1CCN(C(=O)c2cc(-c3ccc(Cl)cc3)oc2C(F)(F)F)CC1)N1CCN(C2CCC2)CC1 [Compound 469, 1-[5-(4-chlorophenyl)-2-(trifluoromethyl)-3-furoyl]-4-[2-(4-cyclobutylpiperazin-1-yl)-2-oxoethyl]piperazine]
> 90% | Cc1oc(-c2ccc(Cl)cc2)cc1C(=O)N1CCN(CC(=O)N2CCN(C3CCC3)CC2)CC1 [Compound 470, 1-[5-(4-chlorophenyl)-2-methyl-3-furoyl]-4-[2-(4-cyclobutylpiperazin-1-yl)-2-oxoethyl]piperazine]
> 90% | COc1cc(/C=C/C(=O)N2CCN(CC(=O)N3CCN(C4CCC4)CC3)CC2)ccc1OCc1ccccc1 [Compound 471, 1-{(2E)-3-[4-(benzyloxy)-3-methoxyphenyl]prop-2-enoyl}-4-[2-(4-cyclobutylpiperazin-1-yl)-2-oxoethyl]piperazine]
> 90% | CCCc1c(C(=O)N2CCN(CC(=O)N3CCN(C4CCC4)CC3)CC2)cnn1-c1ccc(Cl)cc1 [Compound 472, 1-{[1-(4-chlorophenyl)-5-propyl-1H-pyrazol-4-yl]carbonyl}-4-[2-(4-cyclobutylpiperazin-1-yl)-2-oxoethyl]piperazine]
> 90% | O=C(CN1CCN(C(=O)c2cccnc2Oc2ccc(Cl)cc2)CC1)N1CCN(C2CCC2)CC1 [Compound 473, 1-{[2-(4-chlorophenoxy)pyridin-3-yl]carbonyl}-4-[2-(4-cyclobutylpiperazin-1-yl)-2-oxoethyl]piperazine]
> 90% | CC(C)(C)c1ccc(Oc2ncccc2C(=O)N2CCN(CC(=O)N3CCN(C4CCC4)CC3)CC2)cc1 [Compound 474, 1-{[2-(4-tert-butylphenoxy)pyridin-3-yl]carbonyl}-4-[2-(4-cyclobutylpiperazin-1-yl)-2-oxoethyl]piperazine]
> 90% | C=CCSc1ncccc1C(=O)N1CCN(CC(=O)N2CCN(C3CCC3)CC2)CC1 [Compound 475, 1-{[2-(allythio)pyridin-3-yl]carbonyl}-4-[2-(4-cyclobutylpiperazin-1-yl)-2-oxoethyl]piperazine]
> 90% | CC(CC(=O)N1CCN(CC(=O)N2CCN(C3CCC3)CC2)CC1)Sc1ccc(Cl)cc1 (stereo not shown) [Compound 482, 1-{3-[(4-chlorophenyl)thio]butanoyl}-4-[2-(4-cyclobutylpiperazin-1-yl)-2-oxoethyl]piperazine]
> 90% | CCC(C)N1CCN(C(=O)CN2CCN(C(C)=O)CC2)CC1 (stereo not shown) [Compound 486, 1-acetyl-4-[2-(4-sec-butylpiperazin-1-yl)-2-oxoethyl]piperazine]
> 90% | CCCCn1c(C(=O)N2CCN(CC(=O)N3CCN(C4CCC4)CC3)CC2)cc2ccccc21 [Compound 495, 1-butyl-2-({4-[2-(4-cyclobutylpiperazin-1-yl)-2-oxoethyl]piperazin-1-yl}carbonyl)-1H-indole]
> 90% | Cc1cc(C(=O)N2CCN(CC(=O)N3CCN(C4CCC4)CC3)CC2)c(C)n1C [Compound 497, 1-cyclobutyl-4-({4-[(1,2,5-trimethyl-1H-pyrrol-3-yl)carbonyl]piperazin-1-yl}acetyl)piperazine]
> 90% | Cc1cc(C(=O)N2CCN(CC(=O)N3CCN(C4CCC4)CC3)CC2)nn1C [Compound 498, 1-cyclobutyl-4-({4-[(1,5-dimethyl-1H-pyrazol-3-yl)carbonyl]piperazin-1-yl}acetyl)piperazine]
> 90% | CCn1nc(C)cc1C(=O)N1CCN(CC(=O)N2CCN(C3CCC3)CC2)CC1 [Compound 499, 1-cyclobutyl-4-({4-[(1-ethyl-3-methyl-1H-pyrazol-5-yl)carbonyl]piperazin-1-yl}acetyl)piperazine]
> 90% | COc1ccc(C(=O)N2CCN(CC(=O)N3CCN(C4CCC4)CC3)CC2)c(OC)n1 [Compound 513, 1-cyclobutyl-4-({4-[(2,6-dimethoxypyridin-3-yl)carbonyl]piperazin-1-yl}acetyl)piperazine]

SMILES | inhibition at 4 µM
O=C(Cc1ccccc1OCc1ccccc1)N1CCN(CC(=O)N2CCN(C3CCC3)CC2)CC1 [Compound 476, 1-{[2-(benzyloxy)phenyl]acetyl}-4-[2-(4-cyclobutylpiperazin-1-yl)-2-oxoethyl]piperazine] | > 90%
O=C(COc1cccc2ccccc12)N1CCN(CC(=O)N2CCN(C3CCC3)CC2)CC1 [Compound 500, 1-cyclobutyl-4-({4-[(1-naphthyloxy)acetyl]piperazin-1-yl}acetyl)piperazine] | > 90%
COc1cccc(CC(=O)N2CCN(CC(=O)N3CCN(C4CCC4)CC3)CC2)c1OC [Compound 502, 1-cyclobutyl-4-({4-[(2,3-dimethoxyphenyl)acetyl]piperazin-1-yl}acetyl)piperazine] | > 90%
Cc1cccc(OCC(=O)N2CCN(CC(=O)N3CCN(C4CCC4)CC3)CC2)c1C [Compound 503, 1-cyclobutyl-4-({4-[(2,3-dimethylphenoxy)acetyl]piperazin-1-yl}acetyl)piperazine] | > 90%
O=C(COc1ccc(Cl)cc1Cl)N1CCN(CC(=O)N2CCN(C3CCC3)CC2)CC1 [Compound 504, 1-cyclobutyl-4-({4-[(2,4-dichlorophenoxy)acetyl]piperazin-1-yl}acetyl)piperazine] | > 90%
O=C(Cc1ccc(Cl)cc1Cl)N1CCN(CC(=O)N2CCN(C3CCC3)CC2)CC1 [Compound 505, 1-cyclobutyl-4-({4-[(2,4-dichlorophenyl)acetyl]piperazin-1-yl]acetyl)piperazine] | > 90%
O=C(Cc1ccc(F)cc1F)N1CCN(CC(=O)N2CCN(C3CCC3)CC2)CC1 [Compound 506, 1-cyclobutyl-4-({4-[(2,4-difluorophenyl)acetyl]piperazin-1-yl}acetyl)piperazine] | > 90%
Cc1ccc(OCC(=O)N2CCN(CC(=O)N3CCN(C4CCC4)CC3)CC2)c(C)c1 [Compound 508, 1-cyclobutyl-4-({4-[(2,4-dimethylphenoxy)acetyl]piperazin-1-yl}acetyl)piperazine] | > 90%
Cc1ccc(C)c(OCC(=O)N2CCN(CC(=O)N3CCN(C4CCC4)CC3)CC2)c1 [Compound 510, 1-cyclobutyl-4-({4-[(2,5-dimethylphenoxy)acetyl]piperazin-1-yl}acetyl)piperazine] | > 90%
O=C(Cc1c(F)cccc1F)N1CCN(CC(=O)N2CCN(C3CCC3)CC2)CC1 [Compound 512, 1-cyclobutyl-4-({4-[(2,6-difluorophenyl)acetyl]piperazin-1-yl}acetyl)piperazine] | > 90%

Same assay, conditions: 1 h; assay described in Example 8; symbol + in column headed Ki of Table II; read-out: percent inhibition of agonist-induced GTP-gammaS binding to H3

inhibition at 4 µM | SMILES
> 90% | COc1ncc(Cl)cc1C(=O)N1CCN(CC(=O)N2CCN(C3CCC3)CC2)CC1 [Compound 413, 1-[(5-chloro-2-methoxypyridin-3-yl)carbonyl]-4-[2-(4-cyclobutylpiperazin-1-yl)-2-oxoethyl]piperazine]
> 90% | O=C(CN1CCN(C(=O)c2ccc(Cl)s2)CC1)N1CCN(C2CCC2)CC1 [Compound 414, 1-[(5-chloro-2-thienyl)carbonyl]-4-[2-(4-cyclobutylpiperazin-1-yl)-2-oxoethyl]piperazine]
> 90% | O=C(CN1CCN(C(=O)c2ccc(Cl)nc2)CC1)N1CCN(C2CCC2)CC1 [Compound 416, 1-[(6-chloropyridin-3-yl)carbonyl]-4-[2-(4-cyclobutylpiperazin-1-yl)-2-oxoethyl]piperazine]
> 90% | O=C(CN1CCN(C(=O)c2ccccc2Oc2ccc(Cl)cc2)CC1)N1CCN(C2CCC2)CC1 [Compound 419, 1-[2-(4-chlorophenoxy)benzoyl]-4-[2-(4-cyclobutylpiperazin-1-yl)-2-oxoethyl]piperazine]
> 90% | CC(Oc1ccc(Cl)cc1)C(=O)N1CCN(CC(=O)N2CCN(C3CCC3)CC2)CC1 (stereo not shown) [Compound 420, 1-[2-(4-chlorophenoxy)propanoyl]-4-[2-(4-cyclobutylpiperazin-1-yl)-2-oxoethyl]piperazine]
